Source: patent US6872827B2, “Somatostatin analogue compounds” (Chembridge Research Laboratories, Inc., priority 2002, dated 2005)
pIC50, pKi: −log10 of the molar value. Several values for one entry are separate records, joined by “and”; a condition that tells them apart may be missing. Equal entries are not always repeated. Where two headings read alike, the source gives them in different places.

What was measured:
[1] = target: T1, Somatostatin sst 3 (Homo sapiens, UniProt P32745); experiment: Somatostatin sst3 radioligand binding assay; conditions: for % inh / inhibition at 10 µM: Conc 10 μM (Conc not given in some rows)
T1 construct: host or cells: CHO-K1
Method: (§1) Compounds of the present invention were assessed for their binding affinity to sst1, sst3, and sst4 receptors by biochemical and radioligand assay according to the following procedures. The assays were conducted by MDS Pharma Services—Taiwan Ltd., Pharmacology Laboratories, 158 Li-The Road, Peitou, Taipei, Taiwan 112, R.O.C.
The protocol for sst3 assay was adapted from Liapakis, G., Fitzpatrick, D., Hoeger, C., Rivier, J., Vandlen, R. and Reisine, T. (1996) “Identification of ligand binding determinants in the somatostatin receptor subtypes 1 and 2.”J. Biol. Chem. 271(24): 20331-20339, 1996; and Patel, Y. C. and Srikant, C. B. (1994) “Subtype selectivity of peptide analogs for all five cloned human somatostatin receptors (hsstr 1-5).” Endocrinology 135 (6): 2814-2817, 1994. The protocol were and can be conducted according to the following conditions.
(§2) IC50 values were determined by a non-linear, least squares regression analysis using Data Analysis Toolbox™ (MDL Information Systems, San Leandro, Calif., USA). Where inhibition constants (Ki) are presented, the Ki values were calculated using the equation of Cheng and Prusoff (Cheng, Y., Prusoff, W. H., Biochem. Pharmacol. 22:3099-3108, 1973) using the observed IC50 of the tested compound, the concentration of the radioligand employed in the assay, and the historical values for the Kd of the ligand (obtained experimentally at MDS Pharma Services). Where presented, the Hill coefficient (nH), defining the slope of the competitive binding curve, was calculated using Data Analysis Toolbox™. […] Where IC50, Ki and/or nH data are presented without Standard Error of the Mean (SEM), data are insufficient to be quantitative, and the values presented (Ki, IC50, nH) should be interpreted accordingly.

[2] = target: T2, Somatostatin sst1 (Homo sapiens, UniProt P30872); experiment: Somatostatin sst1 radioligand binding assay; conditions: for % inh / inhibition at 10 µM: Conc 10 μM
T2 construct: host or cells: CHO-K1
Method: as §1
The protocol for sstl assay was adapted from Liapakis, G., Fitzpatrick, D., Hoeger, C., Rivier, J., Vandlen, R. and Reisine, T. (1996) “Identification of ligand binding determinants in the somatostatin receptor subtypes 1 and 2.”J. Biol. Chem. 271(24): 20331-20339, 1996; and Patel, Y. C. and Srikant, C. B. (1994) “Subtype selectivity of peptide analogs for all five cloned human somatostatin receptors (hsstr 1-5).” Endocrinology 135 (6): 2814-2817, 1994. The protocol were and can be conducted according to the following conditions.
as §2

[3] = target: T3, Somatostatin sst4 (Homo sapiens, UniProt P31391); experiment: Somatostatin sst4 radioligand binding assay; conditions: for % inh / inhibition at 10 µM: Conc 10 μM (Conc not given in some rows)
T3 construct: host or cells: CHO-K1
Method: as §1
The protocol for sst4 assay was adapted from Patel, Y. C. and Srikant, C. B. (1994) “Subtype selectivity of peptide analogs for all five cloned human somatostatin receptors (hsstr 1-5).” Endocrinology 135 (6): 2814-2817, 1994. The protocol were and can be conducted according to the following conditions.
as §2

[4] = target: T4, Sst5 (Cavia porcellus, UniProt H0W1F1); experiment: Sst5 (functional) assay, Vas def gp; conditions: Table 4, Conc 30 μM; for activation at 30 µM: read-out: % Ag
T4 sequence (H0W1F1 1-365): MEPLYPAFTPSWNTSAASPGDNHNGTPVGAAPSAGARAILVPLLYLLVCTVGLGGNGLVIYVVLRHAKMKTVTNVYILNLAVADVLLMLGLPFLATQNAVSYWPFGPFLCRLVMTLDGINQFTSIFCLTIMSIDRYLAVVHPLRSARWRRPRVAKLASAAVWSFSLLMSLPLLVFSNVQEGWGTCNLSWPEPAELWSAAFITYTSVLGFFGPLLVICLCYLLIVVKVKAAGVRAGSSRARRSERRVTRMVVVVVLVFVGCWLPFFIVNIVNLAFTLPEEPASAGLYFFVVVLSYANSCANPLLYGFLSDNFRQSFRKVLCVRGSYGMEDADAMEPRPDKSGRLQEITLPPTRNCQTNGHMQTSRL

[5] = Hill coefficient of competitive binding curve

T1 sequence (P32745 whole entry): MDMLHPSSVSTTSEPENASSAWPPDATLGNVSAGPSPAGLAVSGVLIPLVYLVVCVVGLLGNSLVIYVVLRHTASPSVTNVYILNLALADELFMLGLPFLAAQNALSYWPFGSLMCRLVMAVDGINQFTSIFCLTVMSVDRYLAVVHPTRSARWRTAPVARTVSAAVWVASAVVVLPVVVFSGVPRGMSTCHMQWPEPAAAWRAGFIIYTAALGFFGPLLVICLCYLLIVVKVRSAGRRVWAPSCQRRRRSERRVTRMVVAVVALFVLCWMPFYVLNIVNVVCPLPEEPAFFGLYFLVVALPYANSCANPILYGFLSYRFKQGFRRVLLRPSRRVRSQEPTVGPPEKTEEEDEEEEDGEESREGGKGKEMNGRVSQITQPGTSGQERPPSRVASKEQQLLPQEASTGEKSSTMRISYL
T3 sequence (P31391 whole entry): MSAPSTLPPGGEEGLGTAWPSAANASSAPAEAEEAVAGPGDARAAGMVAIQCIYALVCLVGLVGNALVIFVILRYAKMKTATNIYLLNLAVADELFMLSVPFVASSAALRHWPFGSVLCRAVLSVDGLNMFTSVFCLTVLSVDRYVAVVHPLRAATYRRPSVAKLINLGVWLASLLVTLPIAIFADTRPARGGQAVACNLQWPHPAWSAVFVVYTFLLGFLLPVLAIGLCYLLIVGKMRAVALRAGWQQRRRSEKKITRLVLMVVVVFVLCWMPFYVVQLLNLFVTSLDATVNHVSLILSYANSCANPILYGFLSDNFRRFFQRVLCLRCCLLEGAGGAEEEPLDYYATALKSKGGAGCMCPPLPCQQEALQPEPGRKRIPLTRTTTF
T2 sequence (P30872 whole entry): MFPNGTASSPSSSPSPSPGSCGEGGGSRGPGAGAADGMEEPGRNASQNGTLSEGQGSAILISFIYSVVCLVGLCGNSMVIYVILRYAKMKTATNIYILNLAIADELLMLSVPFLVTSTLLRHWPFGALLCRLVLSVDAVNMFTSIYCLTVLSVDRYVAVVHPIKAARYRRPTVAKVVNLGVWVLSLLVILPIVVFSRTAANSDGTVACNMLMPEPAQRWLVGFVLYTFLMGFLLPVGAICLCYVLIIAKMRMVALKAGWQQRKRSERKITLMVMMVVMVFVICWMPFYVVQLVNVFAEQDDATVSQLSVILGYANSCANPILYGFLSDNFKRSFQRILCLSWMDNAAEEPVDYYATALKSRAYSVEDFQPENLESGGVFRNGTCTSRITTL

| Compound | nH ([1]; Table 4, human) | nH ([2]; Table 4, human) | nH ([3]; Table 4, human) | inhibition at 10 µM ([1]; Table 4, human) | inhibition at 10 µM ([2]; Table 4, human) | inhibition at 10 µM ([3]; Table 4, human) | pIC50 ([1]; Table 4, human) | pKi ([1]; Table 4, human) | pIC50 ([2]; Table 4, human) | pKi ([2]; Table 4, human) | pIC50 ([3]; Table 4, human) | pKi ([3]; Table 4, human) | further results |
| --- | --- | --- | --- | --- | --- | --- | --- | --- | --- | --- | --- | --- | --- |
| 7-(4-methoxy-phenoxy)-3,4-dihydro-2H-quinoline-1-(4-aminobutyl-1-yl-)-4-spiro-5′-1′-methy-3′-[2-(1H-indol-3-yl-ethyl]-imidazoline-2′4′-dione [G] | 0.985 | 0.67 | 0.786 |  |  |  |  |  |  |  |  |  | % inh ([1]; Table 4, human): 60%; % inh ([2]; Table 4, human): 64%; % inh ([3]; Table 4, human): 68% |
| 7-Phenoxy-3′-4′-dihydro-2H-quinoline 1-(methylpiperidine-4-yl)-4-spiro-5′-1′-(1H-indole-3yl-methyl)-3′-methyl-imidazoline-2′-4′-dione | 1.3 | 1.16 | 1.37 |  |  |  |  |  |  |  |  |  | % inh ([1]; Table 4, human): 86%; % inh ([2]; Table 4, human): 89%; % inh ([3]; Table 4, human): 89% |
| CN1C(=O)N(Cc2c[nH]c3ccccc23)C2(CCN(C(=O)CCCN)c3cc(Oc4ccccc4)ccc32)C1=O (stereo not drawn) [C, 7-phenoxy-3,4-dihydro-2H-quinoline-1-(4-amino-butyl-1-one)-4-spiro-5′-1′-(1H-indol-3-ylmethyl)-3′-methyl-imidazoline-2′,4′-dione] |  |  |  |  |  |  |  |  |  |  |  |  | % inh ([1]; Table 4, human): 25%; % inh ([2]; Table 4, human): 24%; % inh ([3]; Table 4, human): 32% |
| CN1C(=O)N(Cc2c[nH]c3ccccc23)C(=O)C12CCN(C(=O)CCCN)c1cc(Oc3ccccc3)ccc12 (stereo not drawn) [Compound A, 7-phenoxy-3,4-dihydro-2H-quinoline-1-(4-amino-butanonyl)-4-spiro-5′-1′-methyl-3′-(1H-indol-3-ylmethyl)-imidazolidine-2′,4′-dione] | 0.564 | 0.433 | 0.504 | 56% | 54% | 50% |  |  |  |  |  |  | pIC50 [1]: 5.18; pKi ([1]; Cheng-Prusoff from IC50): 5.23; nH [1, 5]: 0.564; activation at 30 µM [4]: 61%; pIC50 [2]: 5.19; pKi ([2]; Cheng-Prusoff from IC50): 5.22; nH [2, 5]: 0.433; pIC50 [3]: 5.22; pKi ([3]; Cheng-Prusoff from IC50): 5.28; nH [3, 5]: 0.504 |
| CN1C(=O)N(Cc2c[nH]c3ccccc23)C2(CCN(CCCCN)c3cc(Oc4ccccc4)ccc32)C1=O (stereo not drawn) [Compound B, 7-phenoxy-3,4-dihydro-2H-quinoline-1-(4-butylamine)-4-spiro-5′-1′-(1H-indol-3-ylmethyl)-3′-methyl-imidazolidine-2′,4′-dione] | 0.722 | 0.62 |  | 60% | 57% | 39% |  |  |  |  |  |  | pIC50 [1]: 5.23; pKi ([1]; Cheng-Prusoff from IC50): 5.29; nH [1, 5]: 0.722; pIC50 [2]: 5.49; pKi ([2]; Cheng-Prusoff from IC50): 5.51; nH [2, 5]: 0.62 |
| Cc1ccc(Oc2ccc3c(c2)N(CCCCN)CCC32C(=O)N(C)C(=O)N2Cc2c[nH]c3ccccc23)cc1 (stereo not drawn) [D, 7-Tolyloxy-3′-4′-dihydro-2H-quinoline-1-(aminobutan-1yl)-4-spiro-5′-1′-(1H-indol-3-yl-methyl)-3′methyl-imidazolidine-2′4′-dione] | 2.34 | 0.654 | 1.15 | 68% | 84% | 68% | 5.15 | 5.20 | 6.09 | 6.12 | 5.29 | 5.35 |  |
| CN1C(=O)N(CCc2c[nH]c3ccccc23)C(=O)C12CCN(CCCCN)c1cc(O)ccc12 (stereo not drawn) [F] |  | 0.992 |  |  | 87% |  |  |  | 5.88 | 5.90 |  |  |  |
| Cc1ccc(Oc2ccc3c(c2)N(CCCCN)CCC32C(=O)N(CCc3c[nH]c4ccccc34)C(=O)N2C)cc1 (stereo not drawn) [H, 7-Tolyloxy-3′-4′-dihydro-2H-quinoline-1-(4-amino-butan-1yl)-4-spiro-5′-1′-methyl-3′[2-(1H-indol-3-yl)-ethyl]-imidazolidine-2′4′-dione] | 0.922 | 1.38 | 1 | 57% | 66% | 68% | 5.12 | 5.17 | 5.91 | 5.93 | 6.19 | 6.24 |  |
| Cc1ccc(Oc2ccc3c(c2)N(CCCCN)CCC32C(=O)N(CCc3c[nH]c4ccccc34)C(=O)N2C)cc1C (stereo not drawn) [I] | 0.977 | 0.598 | 1.16 | 56% | 66% | 71% | 5.10 | 5.15 | 5.47 | 5.49 | 5.58 | 5.64 |  |
| CN1C(=O)N(CCc2c[nH]c3ccccc23)C(=O)C12CCN(CCCCN)c1cc(Oc3ccc4c(c3)OCO4)ccc12 (stereo not drawn) [J, 7-(Benzo-[1,3]-dioxol-5-yloxy)-3′-4′-dihydro-2H-quinoline-1-(4-amino-butan-1yl)-4-spiro-5′-1′-methyl-3′[2-(-1H-indol-3-yl)-ethyl]-imidazolidine-2′4′-dione] | 0.915 | 1.28 | 1.25 | 72% | 69% | 72% | 5.43 | 5.48 | 6.16 | 6.18 | 6.12 | 6.18 | activation at 30 µM [4]: -11%; inhibition at 30 µM ([4]; guinea pig, read-out: % Ant): 1% |
| Somatostatin-14 [reference compound] |  |  |  |  |  |  |  |  |  |  |  |  | nH [1, 5]: 0.73 and 0.775; nH [2, 5]: 0.628 and 0.747; nH [3, 5]: 1.02 |
